Data published in patent publication US20260258087A1, “PHARMACEUTICAL COMPOSITION FOR PREVENTING OR TREATING HEPATITIS B” (GWANGJU INSTITUTE OF SCIENCE AND TECHNOLOGY, priority 2022, published 2026).

What was measured:
[1] = Caco-2 permeability assay; details: human
Description: Caco-2 permeability assay was performed in triplicate. A 10 μM sample was dissolved in 1% (v/v) DMSO/HBSS solution, and 100 μM verapamil in Hank's Balanced Salt Solution (HBSS) buffer was used as a P-glycoprotein inhibitor. Inserts with Caco-2 cells were pre-incubated with verapamil for 30 min at 37° C., and then incubated for 2 hours at 37° C. without shaking. Efflux ratio was calculated as A to B permeability/B to A permeability. Aliquots (20 μL) were collected at each time point (0.5, 1, 1.5, and 2 hours). Experiments were performed in duplicate.

HBV = format: cell-based, Hepatitis B virus; details: HepG2-NTCP cells
Description: HepG2 cells are representative cells that have immortalized human liver cells, and HepG2-NTCP cells refer to cells that overexpress sodium-taurocholate cotransporting polypeptide (NTCP). HepG2-NTCP cells are representative cells used to confirm the effect of inhibiting HBV host invasion.
HepG2-NTCP cells were grown in DMEM medium containing 10% FBS, penicillin (100 U), and streptomycin (0.1 mg/mL) at 37° C. with […]. […] The HepG2-NTCP cells were incubated with cyclic peptides in 12-well plates for 2 hours. Afterwards, the cells were infected by treating HBV particles (2×10^6 virus/mL) and cyclic peptide together and cultured for 3 hours. After removing the medium containing the virus, the cells were cultured for 16 hours. After the cells were treated with cyclic peptide, intracellular HBV DNA was extracted, purified, and quantified using a gene amplification test. To isolate HBV DNA from host cells, cells were lysed with cell lysis buffer (50 mM Tris-HCl, pH 7.5, 1 mM EDTA, 1% NP40) for 10 minutes on ice. […]. Micrococcal nuclease was inactivated by adding EGTA to a final concentration of […]. Afterwards, intracellular DNA of HBV was extracted using the G-SPIN™ set. […]
In vitro HBV entry inhibition assay based on quantification of intracellular DNA of HBV was performed. […]
The IC50 values are expressed as mean±SD. […]

Molecule	Papp A→B at 2 h, 10 μM ([1]; Caco-2) [nm/s]	Papp B→A at 2 h, 10 μM ([1]; Caco-2) [nm/s]	efflux ratio at 2 h, 10 μM ([1]; Caco-2)	recovery at 2 h, 10 μM ([1]; Caco-2, A to B % recovery, A to B) [%]	recovery at 2 h, 10 μM ([1]; Caco-2, A to B with verapamil % recovery, A to B, 100 μM verapamil) [%]	recovery at 2 h, 10 μM ([1]; Caco-2, B to A % recovery, B to A) [%]	HBV inhibition (%) (HBV; 1 μM, intracellular HBV DNA, n=3)	IC50 (HBV; mean±SD, read-out: In vitro HBV entry inhibition (IC50)) [µM]
CN(C)C(=O)C(CCN1CCC(O)(c2ccc(Cl)cc2)CC1)(c1ccccc1)c1ccccc1 [loperamide]	29 ± 20	275 ± 16	10	88 ± 6	78 ± 1	85 ± 1		
Cyclosporine A [CsA]							83 ± 8	0.4 ± 0.03
